Test results reported in PubChem BioAssay AID1963961 (Molecular Pharmacology Branch, DTP, NCI, 2024).
Where “and” joins values, the source holds several entries; their conditions need not be identical. Equal entries are not always repeated.

Test system: K98450-129-R-PDC multicell spheroids, viability
Experiment: Anticancer human tumor K98450-129-R-PDC patient-derived colon adenocarcinoma cell line growth inhibition [PI3K]
Conditions: for viability, T/C: stronger effect = lower value
In short: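 Tumor cells grown as multi-cell spheroids with HUVEC endothelial cells and MSC fibroblast-like stroma were treated with targeted agents combined with inavolisib, alpelisib, duvelisib or copanlisib. Doses fell in half-log steps from near clinical Cmax, else from 10 microM. Viability was measured.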

[1] = curve of first compound, second compound 0.00316 µM
[2] = curve of first compound, second compound 0.01 µM
[3] = curve of first compound, second compound 0.0316 µM
[4] = curve of first compound, second compound 0.1 µM
[5] = curve of first compound, second compound 0.316 µM
[6] = curve of first compound, second compound 1 µM
[7] = second compound 0.00316 µM, first compound 0.0316 µM
[8] = second compound 0.00316 µM, first compound 0.1 µM
[9] = second compound 0.00316 µM, first compound 0.316 µM
[10] = second compound 0.00316 µM, first compound 1 µM
[11] = second compound 0.00316 µM, first compound 3.16 µM
[12] = second compound 0.00316 µM, first compound 10 µM
[13] = second compound 0.01 µM, first compound 0.0316 µM
[14] = second compound 0.01 µM, first compound 0.1 µM
[15] = second compound 0.01 µM, first compound 0.316 µM
[16] = second compound 0.01 µM, first compound 1 µM
[17] = second compound 0.01 µM, first compound 3.16 µM
[18] = second compound 0.01 µM, first compound 10 µM
[19] = second compound 0.0316 µM, first compound 0.0316 µM
[20] = second compound 0.0316 µM, first compound 0.1 µM
[21] = second compound 0.0316 µM, first compound 0.316 µM
[22] = second compound 0.0316 µM, first compound 1 µM
[23] = second compound 0.0316 µM, first compound 3.16 µM
[24] = second compound 0.0316 µM, first compound 10 µM
[25] = second compound 0.1 µM, first compound 0.0316 µM
[26] = second compound 0.1 µM, first compound 0.1 µM
[27] = second compound 0.1 µM, first compound 0.316 µM
[28] = second compound 0.1 µM, first compound 1 µM
[29] = second compound 0.1 µM, first compound 3.16 µM
[30] = second compound 0.1 µM, first compound 10 µM
[31] = second compound 0.316 µM, first compound 0.0316 µM
[32] = second compound 0.316 µM, first compound 0.1 µM
[33] = second compound 0.316 µM, first compound 0.316 µM
[34] = second compound 0.316 µM, first compound 1 µM
[35] = second compound 0.316 µM, first compound 3.16 µM
[36] = second compound 0.316 µM, first compound 10 µM
[37] = second compound 1 µM, first compound 0.0316 µM
[38] = second compound 1 µM, first compound 0.1 µM
[39] = second compound 1 µM, first compound 0.316 µM
[40] = second compound 1 µM, first compound 1 µM
[41] = second compound 1 µM, first compound 3.16 µM
[42] = second compound 1 µM, first compound 10 µM
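Further: spheroids exposed to agents for seven days before read-out.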

`CC1(C)CCC(CN2CCN(c3ccc(C(=O)NS(=O)(=O)c4ccc(NCC5CCOCC5)c([N+](=O)[O-])c4)c(Oc4cnc5[nH]ccc5c4)c3)CC2)=C(c2ccc(Cl)cc2)C1` + CC(Nc1ccc2c(c1)OCCn1cc(N3C(=O)OCC3C(F)F)nc1-2)C(N)=O gave an IC50 [1] of 5.72 µM, an IC50 [2] of 5.95 µM and an IC50 [3] of 5.96 µM. For the same compound, the IC50 [4] was 5.68 µM, the IC50 [5] was 5.6 µM and the IC50 [6] was 5.38 µM. The viability, T/C [7] was 105%, the viability, T/C [8] was 105% and the viability, T/C [9] was 99.9%. For the same compound, the viability, T/C [10] was 103%, the viability, T/C [11] was 96.5% and the viability, T/C [12] was 6.21%. It also gave a viability, T/C [13] of 111%, a viability, T/C [14] of 98.7% and a viability, T/C [15] of 109%. The viability, T/C [16] was 104%, the viability, T/C [17] was 103% and the viability, T/C [18] was 6.45%. The viability, T/C [19] was 106%, the viability, T/C [20] was 107% and the viability, T/C [21] was 106%. The viability, T/C [22] was 99.6%, the viability, T/C [23] was 99.8% and the viability, T/C [24] was 9.42%. For the same compound, the viability, T/C [25] was 98.2%, the viability, T/C [26] was 104% and the viability, T/C [27] was 103%. The viability, T/C [28] was 102%, the viability, T/C [29] was 95.2% and the viability, T/C [30] was 6.43%. It also gave a viability, T/C [31] of 97.9%, a viability, T/C [32] of 92.8% and a viability, T/C [33] of 101%. For the same compound, the viability, T/C [34] was 85.3%, the viability, T/C [35] was 96.3% and the viability, T/C [36] was 4.55%. For the same compound, the viability, T/C [37] was 86.6%, the viability, T/C [38] was 88.1% and the viability, T/C [39] was 89.8%. The viability, T/C [40] was 90.2%, the viability, T/C [41] was 85.2% and the viability, T/C [42] was 8.82%.
`CC(=O)c1c(C)c2cnc(Nc3ccc(N4CCNCC4)cn3)nc2n(C2CCCC2)c1=O` was tested, and the viability, T/C (compound 0.000316 µM) was 105% [middle of 4 runs], the viability, T/C (compound 0.001 µM) was 106% [middle of 4 runs] and the viability, T/C (compound 0.00316 µM) was 104% [middle of 4 runs]. For the same compound, the viability, T/C (compound 0.01 µM) was 104% (2×) and 102% and 99.6%, the viability, T/C (compound 0.0316 µM) was 101% [middle of 4 runs] and the viability, T/C (compound 0.1 µM) was 95.5% [middle of 4 runs]. The IC50 (curve of compound) was > 0.1 µM.
`CC(Cn1ccc(-c2ccc(C#N)c(Cl)c2)n1)NC(=O)c1cc(C(C)O)[nH]n1` (configuration not stated) was tested, and the viability, T/C (compound 0.0316 µM) was 92.4% and 103% (2×) and 102%, the viability, T/C (compound 0.1 µM) was 107% [middle of 4 runs] and the viability, T/C (compound 0.316 µM) was 102% [middle of 4 runs]. For the same compound, the viability, T/C (compound 1 µM) was 95.1% and 107% (2×) and 91.3%, the viability, T/C (compound 3.16 µM) was 108% and 104% (2×) and 96.2% and the viability, T/C (compound 10 µM) was 104% [middle of 4 runs]. For the same compound, the IC50 (curve of compound) was > 10 µM.
For `C#Cc1c(F)ccc2cc(O)cc(-c3ncc4c(N5CC6CCC(C5)N6)nc(OCC56CCCN5CC(F)C6)nc4c3F)c12` (configuration not stated) + COc1c(OCCCN2CCOCC2)ccc2c3n(c(=NC(=O)c4cnc(N)nc4)nc12)CCN3, the IC50 [1] was > 10 µM, the IC50 [2] was > 10 µM and the IC50 [3] was > 10 µM. For the same compound, the IC50 [4] was > 10 µM, the IC50 [5] was > 10 µM and the IC50 [6] was 2.44 µM. It also gave a viability, T/C [7] of 114%, a viability, T/C [8] of 108% and a viability, T/C [9] of 110%. The viability, T/C [10] was 90%, the viability, T/C [11] was 89.1% and the viability, T/C [12] was 81.7%. It also gave a viability, T/C [13] of 122%, a viability, T/C [14] of 113% and a viability, T/C [15] of 99.9%. It also gave a viability, T/C [16] of 101%, a viability, T/C [17] of 100% and a viability, T/C [18] of 79.5%. It also gave a viability, T/C [19] of 91.6%, a viability, T/C [20] of 101% and a viability, T/C [21] of 76%. For the same compound, the viability, T/C [22] was 81.7%, the viability, T/C [23] was 85.6% and the viability, T/C [24] was 74.3%. It also gave a viability, T/C [25] of 64%, a viability, T/C [26] of 65.7% and a viability, T/C [27] of 80.8%. For the same compound, the viability, T/C [28] was 71%, the viability, T/C [29] was 75.8% and the viability, T/C [30] was 64.3%. It also gave a viability, T/C [31] of 60.8%, a viability, T/C [32] of 58% and a viability, T/C [33] of 67.3%. For the same compound, the viability, T/C [34] was 62.6%, the viability, T/C [35] was 49.1% and the viability, T/C [36] was 47.9%. It also gave a viability, T/C [37] of 54.6%, a viability, T/C [38] of 66% and a viability, T/C [39] of 53.9%. For the same compound, the viability, T/C [40] was 51.2%, the viability, T/C [41] was 50.9% and the viability, T/C [42] was 25.8%.
`C#Cc1c(F)ccc2cc(O)cc(-c3ncc4c(N5CC6CCC(C5)N6)nc(OCC56CCCN5CC(F)C6)nc4c3F)c12` (configuration not stated) + CC(Nc1ccc2c(c1)OCCn1cc(N3C(=O)OCC3C(F)F)nc1-2)C(N)=O was tested, and the IC50 [1] was > 10 µM, the IC50 [2] was > 10 µM and the IC50 [3] was > 10 µM. The IC50 [4] was > 10 µM, the IC50 [5] was > 10 µM and the IC50 [6] was > 10 µM. For the same compound, the viability, T/C [7] was 116%, the viability, T/C [8] was 101% and the viability, T/C [9] was 104%. For the same compound, the viability, T/C [10] was 96.2%, the viability, T/C [11] was 101% and the viability, T/C [12] was 92.7%. It also gave a viability, T/C [13] of 113%, a viability, T/C [14] of 92.1% and a viability, T/C [15] of 109%. For the same compound, the viability, T/C [16] was 95.2%, the viability, T/C [17] was 91.9% and the viability, T/C [18] was 91.3%. It also gave a viability, T/C [19] of 104%, a viability, T/C [20] of 100% and a viability, T/C [21] of 103%. It also gave a viability, T/C [22] of 91.2%, a viability, T/C [23] of 98.5% and a viability, T/C [24] of 87.7%. For the same compound, the viability, T/C [25] was 101%, the viability, T/C [26] was 106% and the viability, T/C [27] was 97%. It also gave a viability, T/C [28] of 99.9%, a viability, T/C [29] of 97.5% and a viability, T/C [30] of 91.5%. The viability, T/C [31] was 88.6%, the viability, T/C [32] was 93% and the viability, T/C [33] was 99.4%. The viability, T/C [34] was 89.1%, the viability, T/C [35] was 99.1% and the viability, T/C [36] was 77.8%. For the same compound, the viability, T/C [37] was 86%, the viability, T/C [38] was 92.3% and the viability, T/C [39] was 92.6%. It also gave a viability, T/C [40] of 86.4%, a viability, T/C [41] of 88.6% and a viability, T/C [42] of 72.8%.
For `CC1(C)CCC(Nc2ncc(C(F)(F)F)c(-c3c[nH]c4c(P(C)(C)=O)c(C#N)ccc34)n2)CN1` (configuration not stated), the viability, T/C (compound 0.0316 µM) was 107% and 114% (2×) and 124%, the viability, T/C (compound 0.1 µM) was 99% [middle of 4 runs] and the viability, T/C (compound 0.316 µM) was 88.8% [middle of 4 runs]. The viability, T/C (compound 1 µM) was 70.6% [middle of 4 runs], the viability, T/C (compound 3.16 µM) was 66.8% [middle of 4 runs] and the viability, T/C (compound 10 µM) was 63.4% [middle of 4 runs]. The IC50 (curve of compound) was 8.62 µM and > 10 µM and 9.21 µM.
